# Patent US20160257697A1, “THIOPHENE-SUBSTITUTED TETRACYCLIC COMPOUNDS AND METHODS OFUSE THEREOF FOR THE TREATMENT OF VIRAL DISEASES” (priority 2013, published 2016)
# Like-named read-outs stand apart in the source and are kept apart here.
# How the values were obtained:
# Assay in all cases: microbe, parasite or virus in culture
# Assay type in all cases: cell-based, Hepatitis C virus (HCV)
# Details in all cases: Replicon Assay A
# HCV replicon 1AY93H = test system: HCV replicon 1AY93H
# How it was run: (§1)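 Cells seeded 2000/well + compound; 0.5% DMSO, 5% FBS; harvest day 3, lyse. Multiplex TaqMan RT-PCR for replicon (Neo probe) and cyclophilin RNA; amounts from Ct vs log(ng) linear regression of replicon total RNA standards.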
# HCV replicon 1A = test system: HCV replicon 1A
# How it was run: as §1
# HCV replicon 2B = test system: HCV replicon 2B
# How it was run: as §1
# [1] = read-out: 2B IC50, HCV replicon 2B
# [2] = read-out: 1A Y93H IC50, replicon 1AY93H
# [3] = Hepatitis C virus, read-out: 1A Y93H IC50 (nM), replicon 1AY93H
# [4] = Hepatitis C virus, read-out: 2B IC50 (nM), replicon 2B
# [5] = Hepatitis C virus, read-out: 1A Y93H IC50, HCV replicon 1A Y93H
# [6] = Hepatitis C virus, HCV replicon 1A
# [7] = Hepatitis C virus, read-out: 2B IC50, HCV replicon 2B
SMILES,IC50 (HCV replicon 1AY93H; [2]),IC50 (HCV replicon 1A; replicon 1A),"IC50 (HCV replicon 2B; read-out: 2B IC50, replicon 2B)",IC50 (HCV replicon 1AY93H; [5]),further results
"COC(=O)N[C@H](C(=O)N1CCC[C@H]1c1ncc(-c2cc(F)c3c(c2)OC(c2cc4c(s2)CCCO4)n2c-3cc3cc(-c4cnc([C@@H]5CCCN5C(=O)[C@@H](NC(=O)OC)C5CCOC(C)(C)C5)[nH]4)ccc32)[nH]1)C(C)C (single isomer, unassigned) [Compound 412]",,,,,"IC50 (HCV replicon 1AY93H; read-out: 1A Y93H IC50, HCV replicon 1A Y93H): 0.008 nM; IC50 (HCV replicon 1A; HCV replicon 1A): 0.0094 nM; IC50 (HCV replicon 2B; [1]): 0.005 nM"
"CCc1ccc(C2Oc3cc(-c4cnc([C@@H]5CCCN5C(=O)[C@@H](NC(=O)OC)C(C)C)[nH]4)cc(F)c3-c3cc4cc(-c5cnc([C@@H]6C[C@@H](F)CN6C(=O)C(NC(=O)OC)C6CCOC(C)(C)C6)[nH]5)ccc4n32)s1 (single isomer, unassigned) [Compound 261]",0.043 nM,0.0015 nM,9.84 nM,,
"COC(=O)N[C@H](C(=O)N1CCC[C@H]1c1ncc(-c2cc(F)c3c(c2)OC(c2ccc(C(CF)CF)s2)n2c-3cc3cc(-c4cnc([C@@H]5CCCN5C(=O)[C@@H](NC(=O)OC)C(C)C)[nH]4)ccc32)[nH]1)C(C)C (single isomer, unassigned) [Compound 120]",,,1.44 nM,,"IC50 (HCV replicon 1AY93H; [3]): 0.1 nM; IC50 (HCV replicon 1A; Hepatitis C virus, replicon 1A): 0.0015 nM"
"COC(=O)N[C@H](C(=O)N1CCC[C@H]1c1ncc(-c2cc(F)c3c(c2)OC(c2ccc(CC(F)(F)F)s2)n2c-3cc3cc(-c4cnc([C@@H]5CCCN5C(=O)[C@@H](NC(=O)OC)C(C)C)[nH]4)ccc32)[nH]1)C(C)C (single isomer, unassigned) [Compound 124]",,,,,"IC50 (HCV replicon 1AY93H; [3]): 1.38 nM; IC50 (HCV replicon 1A; Hepatitis C virus, replicon 1A): 0.0018 nM; IC50 (HCV replicon 2B; [4]): 3.4 nM"
COC(=O)N[C@H](C(=O)N1C[C@H](F)C[C@H]1c1ncc(-c2ccc3c(c2)OC(c2ccc(C4CC4)s2)n2c-3cc3cc(-c4cnc([C@@H]5C[C@@H](F)CN5C(=O)[C@@H](NC(=O)OC)C5CCOCC5)[nH]4)ccc32)[nH]1)C1CCOCC1 (mixture of isomers) [Compound 734],,,,0.24 nM,IC50 (HCV replicon 1A; [6]): 0.42 nM; IC50 (HCV replicon 2B; [7]): 116 nM
"COC(=O)NC(C(=O)N1CCC[C@H]1c1ncc(-c2ccc3c(c2)cc2n3C(c3ccc(C(C)C)s3)Oc3cc(-c4cnc([C@@H]5CCCN5C(=O)[C@@H](NC(=O)OC)C(C)C)[nH]4)cc(F)c3-2)[nH]1)C1CCOC(C)(C)C1 (single isomer, unassigned) [Compound 236]",0.18 nM,0.0017 nM,0.24 nM,,
"CCc1ccc(C2Oc3cc(-c4cnc([C@@H]5C[C@H]6C[C@H]6N5C(=O)[C@@H](NC(=O)OC)C(C)C)[nH]4)cc(F)c3-c3cc4cc(-c5cnc([C@@H]6C[C@H]7C[C@H]7N6C(=O)[C@@H](NC(=O)OC)C(C)C)[nH]5)ccc4n32)s1 (single isomer, unassigned) [Compound 50]",,,,,"IC50 (HCV replicon 1AY93H; [3]): 0.0284 nM; IC50 (HCV replicon 1A; Hepatitis C virus, replicon 1A): 0.0014 nM; IC50 (HCV replicon 2B; [4]): 1.39 nM"
"COC(=O)N[C@H](C(=O)N1CCC[C@H]1c1ncc(-c2cc(F)c3c(c2)OC(c2ccc(C4CCCCC4)s2)n2c-3cc3cc(-c4cnc([C@@H]5CCCN5C(=O)[C@@H](NC(=O)OC)C(C)C)[nH]4)ccc32)[nH]1)C(C)C (single isomer, unassigned) [Compound 530]",,,,0.0499 nM,IC50 (HCV replicon 1A; HCV replicon 1A): 0.0131 nM; IC50 (HCV replicon 2B; [1]): 0.488 nM
"COC(=O)NC(C(=O)N1CCC[C@H]1c1ncc(-c2ccc3c(c2)cc2n3C(c3ccc(C4CC4)s3)Oc3cc(-c4cnc([C@@H]5CCCN5C(=O)[C@@H](NC(=O)OC)C5CCOCC5)[nH]4)cc(F)c3-2)[nH]1)C(C)(C)F (single isomer, unassigned) [Compound 175]",9.03 nM,0.0077 nM,10.5 nM,,
"CCc1ccc(C2Oc3cc(-c4cnc([C@@H]5CCCN5C(=O)C(NC(=O)OC)C5CCOC(C)(C)C5)[nH]4)cc(F)c3-c3cc4cc(-c5cnc([C@@H]6CCCN6C(=O)[C@@H](NC(=O)OC)C(C)C)[nH]5)ccc4n32)s1 (single isomer, unassigned) [Compound 159]",0.77 nM,0.0025 nM,0.45 nM,,
"COC(=O)N[C@H](C(=O)N1CCC[C@H]1c1ncc(-c2cc(C)c3c(c2)OC(c2cc4c(s2)CCC4)n2c-3cc3cc(-c4cnc([C@@H]5CCCN5C(=O)[C@@H](NC(=O)OC)C5CCOCC5)[nH]4)ccc32)[nH]1)C(C)C (single isomer, unassigned) [Compound 540]",,,,2.14 nM,IC50 (HCV replicon 1A; [6]): 0.00859 nM; IC50 (HCV replicon 2B; [7]): 0.147 nM
COC(=O)N[C@H](C(=O)N1CCC[C@H]1c1ncc(-c2cc(F)c3c(c2)OC(c2ccc(C4CC4)s2)n2c-3cc3cc(-c4cnc([C@@H]5CCCN5C(=O)[C@@H](NC(=O)OC)C(C)C)[nH]4)ccc32)[nH]1)C(C)C (mixture of isomers) [Compound 510],,,,0.0979 nM,IC50 (HCV replicon 1A; [6]): 0.00793 nM; IC50 (HCV replicon 2B; [7]): 0.0488 nM
"CCc1ccc(C2Oc3cc(-c4cnc([C@@H]5CCCN5C(=O)[C@@H](NC(=O)OC)C(C)C)[nH]4)cc(F)c3-c3cc4cc(-c5cnc([C@@H]6C[C@H]7C[C@H]7N6C(=O)C(NC(=O)OC)C6CCOC(C)(C)C6)[nH]5)ccc4n32)s1 (single isomer, unassigned) [Compound 196]",0.062 nM,0.0018 nM,0.55 nM,,
